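Interpolation was linear, between the two tested concentrations surrounding the appropriate level; five concentrations were tested over 48 hours in 96-well plates. Here, GI50 denotes the concentration required for 50% inhibition of growth. The concentration for full growth arrest is given as TGI.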
Tests used:
Assay in all cases: growth of human tumour cells (NCI), 48 h
MCF7 breast = system: MCF7 breast
SK-MEL-2 melanoma = system: SK-MEL-2 melanoma
BT-549 breast = system: BT-549 breast
SK-MEL-28 melanoma = system: SK-MEL-28 melanoma
CCRF-CEM leukemia = system: CCRF-CEM leukemia
HCT-15 colon = system: HCT-15 colon
HOP-92 NSCLC = system: HOP-92 NSCLC
A498 renal = system: A498 renal
T-47D breast = system: T-47D breast
SF-295 CNS = system: SF-295 CNS
M14 melanoma = system: M14 melanoma
HT29 colon = system: HT29 colon
MDA-MB-435 = system: MDA-MB-435
SF-268 CNS = system: SF-268 CNS
COLO 205 colon = system: COLO 205 colon
RXF 393 renal = system: RXF 393 renal
LOX IMVI melanoma = system: LOX IMVI melanoma
SK-OV-3 ovarian = system: SK-OV-3 ovarian
IGROV1 ovarian = system: IGROV1 ovarian
HS 578T breast = system: HS 578T breast
UACC-257 melanoma = system: UACC-257 melanoma
786-0 renal = system: 786-0 renal
SK-MEL-5 melanoma = system: SK-MEL-5 melanoma
SR leukemia = system: SR leukemia
MALME-3M melanoma = system: MALME-3M melanoma
EKVX NSCLC = system: EKVX NSCLC
HCT-116 colon = system: HCT-116 colon
NCI-H23 lung = system: NCI-H23 lung
HCC-2998 colon = system: HCC-2998 colon
UACC-62 melanoma = system: UACC-62 melanoma
SW-620 colon = system: SW-620 colon
K-562 leukemia = system: K-562 leukemia
KM12 colon = system: KM12 colon
SN12C renal = system: SN12C renal
NCI-H522 lung = system: NCI-H522 lung
MDA-MB-231 breast = system: MDA-MB-231 breast
DU-145 prostate = system: DU-145 prostate
PC-3 prostate = system: PC-3 prostate
NCI/ADR-RES ovarian = system: NCI/ADR-RES ovarian
RPMI-8226 leukemia = system: RPMI-8226 leukemia
OVCAR-4 ovarian = system: OVCAR-4 ovarian
CAKI-1 renal = system: CAKI-1 renal
OVCAR-5 ovarian = system: OVCAR-5 ovarian
MOLT-4 leukemia = system: MOLT-4 leukemia
OVCAR-3 ovarian = system: OVCAR-3 ovarian
HOP-62 NSCLC = system: HOP-62 NSCLC
A549 NSCLC = system: A549 NSCLC
SNB-75 CNS = system: SNB-75 CNS
HL-60(TB) leukemia = system: HL-60(TB) leukemia
NCI-H460 lung = system: NCI-H460 lung
SF-539 CNS = system: SF-539 CNS
ACHN renal = system: ACHN renal
OVCAR-8 ovarian = system: OVCAR-8 ovarian
UO-31 renal = system: UO-31 renal
TK-10 renal = system: TK-10 renal
U251 CNS = system: U251 CNS
SNB-19 CNS = system: SNB-19 CNS

CCCCC/C=C/C(=O)CCc1ccc(O)c(OC)c1
GI50 (MCF7 breast): 3.11 µM | TGI (MCF7 breast): 15.8 µM | GI50 (SK-MEL-2 melanoma): 14.8 µM | TGI (SK-MEL-2 melanoma): 28.8 µM | GI50 (BT-549 breast): 13.2 µM | TGI (BT-549 breast): 26.7 µM | GI50 (SK-MEL-28 melanoma): 15 µM | TGI (SK-MEL-28 melanoma): 28.7 µM | GI50 (CCRF-CEM leukemia): 0.198 µM | TGI (CCRF-CEM leukemia): 3.01 µM | GI50 (HCT-15 colon): 10.8 µM | TGI (HCT-15 colon): 27.2 µM | GI50 (HOP-92 NSCLC): 3.42 µM | TGI (HOP-92 NSCLC): 18.5 µM | GI50 (A498 renal): 13.1 µM | TGI (A498 renal): 26.8 µM | GI50 (T-47D breast): 4.78 µM | TGI (T-47D breast): 18.9 µM | GI50 (SF-295 CNS): 10.4 µM | TGI (SF-295 CNS): 31 µM | GI50 (M14 melanoma): 5.5 µM | TGI (M14 melanoma): 19.4 µM | GI50 (HT29 colon): 2.13 µM | TGI (HT29 colon): 4.94 µM | GI50 (MDA-MB-435): 4.04 µM | TGI (MDA-MB-435): 19 µM | GI50 (SF-268 CNS): 10.9 µM | TGI (SF-268 CNS): 25.5 µM | GI50 (COLO 205 colon): 11.2 µM | TGI (COLO 205 colon): 24.1 µM | GI50 (RXF 393 renal): 5.4 µM | TGI (RXF 393 renal): 18.6 µM | GI50 (LOX IMVI melanoma): 1.6 µM | TGI (LOX IMVI melanoma): 3.29 µM | GI50 (SK-OV-3 ovarian): 13.8 µM | TGI (SK-OV-3 ovarian): 27.4 µM | GI50 (IGROV1 ovarian): 1.74 µM | TGI (IGROV1 ovarian): 6.91 µM | GI50 (HS 578T breast): 3.49 µM | TGI (HS 578T breast): 32.8 µM | GI50 (UACC-257 melanoma): 9.67 µM | TGI (UACC-257 melanoma): 22.3 µM | GI50 (786-0 renal): 10.6 µM | TGI (786-0 renal): 23.6 µM | GI50 (SK-MEL-5 melanoma): 12.4 µM | TGI (SK-MEL-5 melanoma): 25.1 µM | GI50 (SR leukemia): 2.89 µM | TGI (SR leukemia): > 100 µM | GI50 (MALME-3M melanoma): 16.6 µM | TGI (MALME-3M melanoma): 35.3 µM | GI50 (EKVX NSCLC): 15.1 µM | TGI (EKVX NSCLC): 31.9 µM | GI50 (HCT-116 colon): 1.71 µM | TGI (HCT-116 colon): 3.26 µM | GI50 (NCI-H23 lung): 4.62 µM | TGI (NCI-H23 lung): 17.9 µM | GI50 (HCC-2998 colon): 16.7 µM | TGI (HCC-2998 colon): 30.7 µM | GI50 (UACC-62 melanoma): 13.9 µM | TGI (UACC-62 melanoma): 27.7 µM | GI50 (SW-620 colon): 2.86 µM | TGI (SW-620 colon): 10.3 µM | GI50 (K-562 leukemia): 3.77 µM | TGI (K-562 leukemia): > 100 µM | GI50 (KM12 colon): 3.09 µM | TGI (KM12 colon): 11.7 µM | GI50 (SN12C renal): 7.99 µM | TGI (SN12C renal): 21.4 µM | GI50 (NCI-H522 lung): 2 µM | TGI (NCI-H522 lung): 13.6 µM | GI50 (MDA-MB-231 breast): 12.6 µM | TGI (MDA-MB-231 breast): 32.8 µM | GI50 (DU-145 prostate): 4.03 µM | TGI (DU-145 prostate): 15.4 µM | GI50 (PC-3 prostate): 3.75 µM | TGI (PC-3 prostate): 18 µM | GI50 (NCI/ADR-RES ovarian): 7.49 µM | TGI (NCI/ADR-RES ovarian): 37 µM | GI50 (RPMI-8226 leukemia): 1.69 µM | TGI (RPMI-8226 leukemia): 4.34 µM | GI50 (OVCAR-4 ovarian): 11 µM | TGI (OVCAR-4 ovarian): 23.1 µM | GI50 (CAKI-1 renal): 9.38 µM | TGI (CAKI-1 renal): 27.5 µM | GI50 (OVCAR-5 ovarian): 16.2 µM | TGI (OVCAR-5 ovarian): 32.1 µM | GI50 (MOLT-4 leukemia): 10.1 µM | TGI (MOLT-4 leukemia): > 100 µM | GI50 (OVCAR-3 ovarian): 3.23 µM | TGI (OVCAR-3 ovarian): 12.9 µM | GI50 (HOP-62 NSCLC): 9.77 µM | TGI (HOP-62 NSCLC): 22.1 µM | GI50 (A549 NSCLC): 6.25 µM | TGI (A549 NSCLC): 20.8 µM | GI50 (SNB-75 CNS): 5.63 µM | TGI (SNB-75 CNS): 20.5 µM | GI50 (HL-60(TB) leukemia): 0.784 µM | TGI (HL-60(TB) leukemia): 43.9 µM | GI50 (NCI-H460 lung): 15.2 µM | TGI (NCI-H460 lung): 33.6 µM | GI50 (SF-539 CNS): 5.4 µM | TGI (SF-539 CNS): 20.6 µM | GI50 (ACHN renal): 11.8 µM | TGI (ACHN renal): 24.1 µM | GI50 (OVCAR-8 ovarian): 4.03 µM | TGI (OVCAR-8 ovarian): 16.7 µM | GI50 (UO-31 renal): 1.28 µM | TGI (UO-31 renal): 13.6 µM | GI50 (TK-10 renal): 11.6 µM | TGI (TK-10 renal): 24.7 µM | GI50 (U251 CNS): 4.65 µM | TGI (U251 CNS): 17.1 µM | GI50 (SNB-19 CNS): 14 µM | TGI (SNB-19 CNS): 27.1 µM

Source: PubChem BioAssay (NCI)
